Patent US8017612B2, “Piperazine compound and use thereof as a HCV polymerase inhibitor” (priority 2006, dated 2011)
Where a name gives a salt, the structure may show the parent alone.

Columns and labels:
[1] = biological target: T1, HCV polymerase (NS5B) type 1a (Hepatitis C virus genotype 1a, UniProt P26664); assay: Assay of enzyme (HCV polymerase) inhibitory activity, type 1a enzyme; assay type: biochemical, HCV type 1a (cloned from the blood of patients); conditions: HCV polymerase inhibitory activity (IC50), 1a, type 1a enzyme 1.5 μg/ml, 25° C., 60 min
T1 construct: made in house; host or cells: Escherichia coli (by the 'similar method' of the 1b enzyme)
In short: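 Patient-derived type 1a NS5B (C-terminal 47-aa deletion, His-tagged, E. coli-expressed) at 1.5 μg/ml was reacted with 5 μg/ml 3′UTR-containing substrate RNA, 50 μM ATP/GTP/CTP, 2 μM UTP plus [3H]UTP, pH 7.5, 25° C for 60 min. TCA-precipitated RNA radioactivity was counted; IC50 from ± compound.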

[2] = biological target: T2, HCV polymerase (NS5B) type 1b (Hepatitis C virus genotype 1b, UniProt P26663); assay: Assay of enzyme (HCV polymerase) inhibitory activity, type 1b enzyme; assay type: biochemical, HCV BK strain (type 1b); conditions: HCV polymerase inhibitory activity (IC50), 1b, type 1b enzyme 0.5 μg/ml, 25° C., 60 min
T2 construct: a region encoding NS5B (J Virol 1991 March, 65(3), 1105-13, 544 amino acids after deletion of 47 amino acids on the C-terminal); 6xHis (C); made in house; host or cells: Escherichia coli
In short: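 NS5B from HCV BK strain (type 1b), C-terminal 47 aa deleted, C-terminal His6-tagged, E. coli-expressed, 0.5 μg/ml, with ~450 nt substrate RNA carrying the 3′ UTR (polyU, 3′X) at 5 μg/ml. Incubation 60 min at 25 °C with 50 μM ATP/GTP/CTP, 2 μM UTP plus [3H]UTP, pH 7.5 Tris.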

SMILES | IC50 [1] | IC50 [2]
CC(=O)N1CCN(S(=O)(=O)c2ccc(-n3cc(Cl)cn3)s2)C(C(=O)NCc2ccc(C(F)(F)F)cc2)C1 (centres unmarked) [Example 62, 4-acetyl-1-[5-(4-chloro-pyrazol-1-yl)-thiophene-2-sulfonyl]-piperazine-2-carboxylic acid 4-trifluoromethyl-benzylamide] | > 1000 nM | > 1000 nM
CC(C)c1ccc(S(=O)(=O)N2CCN(C=O)CC2C(=O)NCc2ccc(C(F)(F)F)cc2)cc1 (centres unmarked) [Example 63, 4-formyl-1-(4-isopropyl-benzenesulfonyl)-piperazine-2-carboxylic acid 4-trifluoromethyl-benzylamide] | > 1000 nM | > 1000 nM
CC(=O)N1CCN(S(=O)(=O)c2ccc(C)cc2)C(C(=O)NCc2ccc(C(F)(F)F)cc2)C1 (centres unmarked) [Example 64, 4-acetyl-1-(toluene-4-sulfonyl)-piperazine-2-carboxylic acid 4-trifluoromethyl-benzylamide] | > 1000 nM | > 1000 nM
CC(=O)N1CCN(S(=O)(=O)c2ccc(OC(F)(F)F)cc2)C(C(=O)NCc2ccc(C(F)(F)F)cc2)C1 (centres unmarked) [Example 65, 4-acetyl-1-(4-trifluoromethoxy-benzenesulfonyl)-piperazine-2-carboxylic acid 4-trifluoromethyl-benzylamide] | > 1000 nM | > 1000 nM
CC(=O)N1CCN(S(=O)(=O)c2ccc(Oc3cccnc3)cc2)C(C(=O)NCc2ccc(C(F)(F)F)cc2)C1 (centres unmarked) [Example 66, 4-acetyl-1-[4-(pyridin-3-yloxy)-benzenesulfonyl]-piperazine-2-carboxylic acid 4-trifluoromethyl-benzylamide hydrochloride] | > 1000 nM | > 1000 nM
CC(=O)N1CCN(S(=O)(=O)c2ccc(C(C)C)cc2)C(C(=O)NCc2ccccc2F)C1 (centres unmarked) [Example 67, 4-acetyl-1-(4-isopropyl-benzenesulfonyl)-piperazine-2-carboxylic acid 2-fluoro-benzylamide] | > 1000 nM | > 1000 nM
CC(=O)N1CCN(S(=O)(=O)c2ccc(C(C)C)cc2)C(C(=O)NCc2ccc(C(C)(C)C)cc2)C1 (centres unmarked) [Example 68, 4-acetyl-1-(4-isopropyl-benzenesulfonyl)-piperazine-2-carboxylic acid 4-tert-butyl-benzylamide] | 100 to 1000 nM | 100 to 1000 nM
CC(=O)N1CCN(S(=O)(=O)c2cnc(Cl)c(Br)c2)C(C(=O)NCc2ccc(C(F)(F)F)cc2)C1 (centres unmarked) [Example 69, 4-acetyl-1-(5-bromo-6-chloro-pyridine-3-sulfonyl)-piperazine-2-carboxylic acid 4-trifluoromethyl-benzylamide hydrochloride] | > 1000 nM | > 1000 nM
CC(=O)N1CCN(S(=O)(=O)c2ccc(N3CCOCC3)nc2)C(C(=O)NCc2ccc(C(F)(F)F)cc2)C1 (centres unmarked) [Example 70, 4-acetyl-1-(6-morpholin-4-yl-pyridine-3-sulfonyl)-piperazine-2-carboxylic acid 4-trifluoromethyl-benzylamide hydrochloride] | > 1000 nM | > 1000 nM
COc1cccc(S(=O)(=O)N2CCN(C(C)=O)CC2C(=O)NCc2ccc(C(F)(F)F)cc2)c1 (centres unmarked) [Example 71, 4-acetyl-1-(3-methoxy-benzenesulfonyl)-piperazine-2-carboxylic acid 4-trifluoromethyl-benzylamide] | > 1000 nM | > 1000 nM
CCCc1ccc(S(=O)(=O)N2CCN(C(C)=O)CC2C(=O)NCc2ccc(C(F)(F)F)cc2)cc1 (centres unmarked) [Example 72, 4-acetyl-1-(4-propyl-benzenesulfonyl)-piperazine-2-carboxylic acid 4-trifluoromethyl-benzylamide] | > 1000 nM | 100 to 1000 nM
CC(=O)N1CCN(S(=O)(=O)c2ccc(-c3ccccc3)cc2)C(C(=O)NCc2ccc(C(F)(F)F)cc2)C1 (centres unmarked) [Example 73, 4-acetyl-1-(biphenyl-4-sulfonyl)-piperazine-2-carboxylic acid 4-trifluoromethyl-benzylamide] | > 1000 nM | > 1000 nM
CC(=O)N1CCN(S(=O)(=O)c2cc3ccccc3s2)C(C(=O)NCc2ccc(C(F)(F)F)cc2)C1 (centres unmarked) [Example 74, 4-acetyl-1-(benzo[b]thiophene-2-sulfonyl)-piperazine-2-carboxylic acid 4-trifluoromethyl-benzylamide] | > 1000 nM | > 1000 nM
CC(=O)N1CCN(S(=O)(=O)c2ccc(C(C)C)s2)C(C(=O)NCc2ccc(C(F)(F)F)cc2)C1 (centres unmarked) [Example 75, 4-acetyl-1-(5-isopropyl-thiophene-2-sulfonyl)-piperazine-2-carboxylic acid 4-trifluoromethyl-benzylamide] | > 1000 nM | > 1000 nM
COC(=O)c1ccc(CNC(=O)C2CN(C(C)=O)CCN2S(=O)(=O)c2ccc(C(C)C)cc2)cc1 (centres unmarked) [Example 76, 4-({[4-acetyl-1-(4-isopropyl-benzenesulfonyl)-piperazine-2-carbonyl]-amino}-methyl)-benzoic acid methyl ester] | > 1000 nM | > 1000 nM
CC(=O)N1CCN(S(=O)(=O)c2ccc(C(C)C)cc2)C(C(=O)NCc2ccc([N+](=O)[O-])cc2)C1 (centres unmarked) [Example 77, 4-acetyl-1-(4-isopropyl-benzenesulfonyl)-piperazine-2-carboxylic acid 4-nitro-benzylamide] | > 1000 nM | > 1000 nM
CC(=O)N1CCN(S(=O)(=O)c2ccc(C(C)C)cc2)C(C(=O)NCc2cccc(F)c2)C1 (centres unmarked) [Example 78, 4-acetyl-1-(4-isopropyl-benzenesulfonyl)-piperazine-2-carboxylic acid 3-fluoro-benzylamide] | > 1000 nM | > 1000 nM
CC(=O)N1CCN(S(=O)(=O)c2ccc(C(C)C)cc2)C(C(=O)NCCc2c[nH]c3ccccc23)C1 (centres unmarked) [Example 79, 4-acetyl-1-(4-isopropyl-benzenesulfonyl)-piperazine-2-carboxylic acid [2-(1H-indol-3-yl)-ethyl]-amide] | > 1000 nM | > 1000 nM
CC(=O)N1CCN(S(=O)(=O)c2ccc(C(C)C)cc2)C(C(=O)NCc2ccc(N3CCOCC3)cc2)C1 (centres unmarked) [Example 80, 4-acetyl-1-(4-isopropyl-benzenesulfonyl)-piperazine-2-carboxylic acid 4-morpholin-4-yl-benzylamide] | > 1000 nM | > 1000 nM
CC(=O)N1CCN(S(=O)(=O)c2ccc(C(C)C)cc2)C(C(=O)NCc2ccc(N3CCN(C)CC3)cc2)C1 (centres unmarked) [Example 81, 4-acetyl-1-(4-isopropyl-benzenesulfonyl)-piperazine-2-carboxylic acid 4-(4-methyl-piperazin-1-yl)-benzylamide] | > 1000 nM | > 1000 nM
CN(C)c1ccc(CNC(=O)C2CN(C(=O)OC(C)(C)C)CCN2S(=O)(=O)c2ccc(I)cc2)cc1 (centres unmarked) [Example 82, 3-(4-dimethylamino-benzylcarbamoyl)-4-(4-iodo-benzenesulfonyl)-piperazine-1-carboxylic acid tert-butyl ester] | > 1000 nM | > 1000 nM
CC(=O)N1CCN(S(=O)(=O)c2ccc(OC(C)C)cc2)C(C(=O)NCc2ccc(C(F)(F)F)cc2)C1 (centres unmarked) [Example 83, 4-acetyl-1-(4-isopropoxy-benzenesulfonyl)-piperazine-2-carboxylic acid 4-trifluoromethyl-benzylamide] | > 1000 nM | > 1000 nM
CN(C)c1ccc(CNC(=O)C2CNCCN2S(=O)(=O)c2ccc(I)cc2)cc1 (centres unmarked) [Example 84, 1-(4-iodo-benzenesulfonyl)-piperazine-2-carboxylic acid 4-dimethylamino-benzylamide hydrochloride] | > 1000 nM | > 1000 nM
CC(=O)N1CCN(S(=O)(=O)c2ccc(I)cc2)C(C(=O)NCc2ccc(N(C)C)cc2)C1 (centres unmarked) [Example 85, 4-acetyl-1-(4-iodo-benzenesulfonyl)-piperazine-2-carboxylic acid 4-dimethylamino-benzylamide] | 100 to 1000 nM | > 1000 nM
CN(C)c1ccc(CNC(=O)C2CN(C(=O)CNC(=O)OC(C)(C)C)CCN2S(=O)(=O)c2ccc(I)cc2)cc1 (centres unmarked) [Example 86, {2-[3-(4-dimethylamino-benzylcarbamoyl)-4-(4-iodo-benzenesulfonyl)-piperazin-1-yl]-2-oxo-ethyl}-carbamic acid tert-butyl ester] | > 1000 nM | > 1000 nM
CN(C)c1ccc(CNC(=O)C2CN(C(=O)CCNC(=O)OC(C)(C)C)CCN2S(=O)(=O)c2ccc(I)cc2)cc1 (centres unmarked) [Example 87, {3-[3-(4-dimethylamino-benzylcarbamoyl)-4-(4-iodo-benzenesulfonyl)-piperazin-1-yl]-3-oxo-propyl}-carbamic acid tert-butyl ester] | > 1000 nM | > 1000 nM
CN(C)c1ccc(CNC(=O)C2CN(C(=O)CN)CCN2S(=O)(=O)c2ccc(I)cc2)cc1 (centres unmarked) [Example 88, 4-(2-amino-acetyl)-1-(4-iodo-benzenesulfonyl)-piperazine-2-carboxylic acid 4-dimethylamino-benzylamide hydrochloride] | > 1000 nM | > 1000 nM
CN(C)c1ccc(CNC(=O)C2CN(C(=O)CCN)CCN2S(=O)(=O)c2ccc(I)cc2)cc1 (centres unmarked) [Example 89, 4-(3-amino-propionyl)-1-(4-iodo-benzenesulfonyl)-piperazine-2-carboxylic acid 4-dimethylamino-benzylamide hydrochloride] | > 1000 nM | > 1000 nM
